“And” between values parts separate entries of the source, which are not always exact repeats. Equal entries are not always repeated. Where two headings read alike, the source gives them in different places.
Test: Pharmacokinetic studies of certain compounds in female Balb/c mice (Example 5)
Format: in vivo
Procedure: Pharmacokinetic studies were performed using Balb/c mice, 15-20 g, 6-9 weeks, female, N=9, purchased from Jihui Laboratory Animal Co. LTD. For compound I-29, Balb/c mice, 19-21 g, 9-11 weeks, female, N=9, were used. The mice were fasted overnight and fed at 4 h post dosing.
Animals were dosed via oral gavage (PO) or tail vein injection (IV) with compound. Sampling occurred at 0.083, 0.25, 0.5, 1, 2, 4, 8, and 24 h post dose (8 time points). The animals were restrained manually at the designated time points. Approx. […] of blood was taken from the animals via facial vein for semi-serial bleeding into tubes with K2EDTA. Blood samples were put on ice and centrifuged at 4° C. (2000 g, 5 min) to obtain plasma within 15 min after sample collection. Plasma samples were stored in dry ice temporarily and at approximately −70° C. until analysis.
For oral gavage, the compound was dosed as a suspension in 1% sodium carboxymethyl cellulose (CMC) and 0.2% Tween 80 in water. For 23.8 mg/kg and 30 mg/kg doses, 3 mg/mL was used; for 50 mg/kg doses, 5 mg/mL was used; and for 100 mg/kg doses, 10 mg/mL was used.
For IV administration, the compound was dosed as a solution in 5% DMSO, 5% Solutol HS15 and 90% saline. For 1 mg/kg and 1.48 mg/kg doses, 0.2 mg/mL was used.
Plasma samples were analyzed using LC-MS using a calibration curve of known concentrations.
The results of these studies are summarized in Tables 11-21 below and in FIGS. 2-8. […] BQL=below quantifiable limit for compound in female Balb/c mouse plasma samples. NA=not available. PK parameters were estimated by non-compartmental model using WinNonlin 8.2. If the adjusted rsq (linear regression coefficient of the concentration value on the terminal phase) was less than 0.9, T1/2 might not have been accurately estimated. F value was determined by the following equation: • If AUClast/AUCINF>80%:
F=(AUCINF-EX×DOSEIV)/(AUCINF-IV×DOSEEX)[…] • If AUClast/AUCINF<80% or AUCINF not available:
F=(AUClast-EX×DOSEIV)/(AUClast-IV×DOSEEX)*1000

[1] = I-1 PO 30 mg/kg, 24 hr, BQL = below quantifiable limit of 1 ng/mL
[2] = mouse, plasma, I-2 PO 100 mg/kg

CC(C)Cc1sc(Nc2ncc(-c3cccs3)cc2C(=O)O)nc1C1=CCOCC1 [Compound I-1]
Plasma concentration Individual (I-1 PO 30 mg/kg, 0.083 hr, 30 mg/kg): 96.9 ng/mL and 51.8 ng/mL and 106 ng/mL
Plasma concentration Individual (I-1 PO 30 mg/kg, 0.25 hr, 30 mg/kg): 467 ng/mL and 432 ng/mL
Plasma concentration Individual (I-1 PO 30 mg/kg, 0.5 hr, 30 mg/kg): 464 ng/mL and 421 ng/mL
Plasma concentration Individual (I-1 PO 30 mg/kg, 1 hr, 30 mg/kg): 592 ng/mL and 498 ng/mL
Plasma concentration Individual (I-1 PO 30 mg/kg, 2 hr, 30 mg/kg): 367 ng/mL and 222 ng/mL
Plasma concentration Individual (I-1 PO 30 mg/kg, 4 hr, 30 mg/kg): 130 ng/mL and 153 ng/mL
Plasma concentration Individual (I-1 PO 30 mg/kg, 8 hr, 30 mg/kg): 78.9 ng/mL and 6.72 ng/mL and 12.2 ng/mL
Plasma concentration Individual [1]: BQL
Plasma concentration Mean [1]: BQL
concentration at 0.083 hr (female, Balb/c, mouse, plasma, po, 30 mg/kg, I-1 PO 30 mg/kg, 0.083 hr, read-out: Plasma concentration Mean): 84.9 ng/mL
concentration at 0.25 hr (female, Balb/c, mouse, plasma, po, 30 mg/kg, I-1 PO 30 mg/kg, 0.25 hr, read-out: Plasma concentration Individual): 383 ng/mL
concentration at 0.25 hr (female, Balb/c, mouse, plasma, po, 30 mg/kg, I-1 PO 30 mg/kg, 0.25 hr, read-out: Plasma concentration Mean): 427 ng/mL
concentration at 0.5 h (female, Balb/c, mouse, plasma, po, 30 mg/kg, I-1 PO 30 mg/kg, 0.5 hr, read-out: Plasma concentration Individual): 397 ng/mL
concentration at 0.5 h (female, Balb/c, mouse, plasma, po, 30 mg/kg, I-1 PO 30 mg/kg, 0.5 hr, read-out: Plasma concentration Mean): 427 ng/mL
concentration at 1 h (female, Balb/c, mouse, plasma, po, 30 mg/kg, I-1 PO 30 mg/kg, 1 hr, read-out: Plasma concentration Individual): 320 ng/mL
concentration at 1 hr (female, Balb/c, mouse, plasma, po, 30 mg/kg, I-1 PO 30 mg/kg, 1 hr, read-out: Plasma concentration Mean): 470 ng/mL
concentration at 2 hr (female, Balb/c, mouse, plasma, po, 30 mg/kg, I-1 PO 30 mg/kg, 2 hr, read-out: Plasma concentration Individual): 376 ng/mL
concentration at 2 hr (female, Balb/c, mouse, plasma, po, 30 mg/kg, I-1 PO 30 mg/kg, 2 hr, read-out: Plasma concentration Mean): 322 ng/mL
concentration at 4 hr (female, Balb/c, mouse, plasma, po, 30 mg/kg, I-1 PO 30 mg/kg, 4 hr, read-out: Plasma concentration Individual): 193 ng/mL
concentration at 4 hr (female, Balb/c, mouse, plasma, po, 30 mg/kg, I-1 PO 30 mg/kg, 4 hr, read-out: Plasma concentration Mean): 159 ng/mL
concentration at 8 hr (female, Balb/c, mouse, plasma, po, 30 mg/kg, I-1 PO 30 mg/kg, 8 hr, read-out: Plasma concentration Mean): 32.6 ng/mL
AUC(0-inf) (mouse, plasma, I-1 PO 30 mg/kg): 1720 ng·h/mL
AUC(0-t) (mouse, plasma, I-1 PO 30 mg/kg): 1640 ng·h/mL
Cmax (mouse, plasma, I-1 PO 30 mg/kg): 470 ng/mL
MRT inf (mouse, plasma, I-1 PO 30 mg/kg): 2.76 h
MRT last (mouse, plasma, I-1 PO 30 mg/kg): 2.35 h
Tmax (mouse, plasma, I-1 PO 30 mg/kg): 1 h
half-life (mouse, plasma, I-1 PO 30 mg/kg): 1.81 h

CC(C)Cc1sc(Nc2ncc(-c3cccs3)cc2C(=O)O)nc1C1=CCCCC1 [Compound I-2]
Plasma concentration Individual (I-2 PO 30 mg/kg, 0.083 hr, 30 mg/kg): 106 ng/mL and 211 ng/mL and 94.1 ng/mL
Plasma concentration Individual (I-2 PO 30 mg/kg, 0.25 hr, 30 mg/kg): 663 ng/mL and 622 ng/mL
Plasma concentration Individual (I-2 PO 30 mg/kg, 0.5 hr, 30 mg/kg): 1380 ng/mL and 1170 ng/mL
Plasma concentration Individual (I-2 PO 30 mg/kg, 1 hr, 30 mg/kg): 2110 ng/mL and 1590 ng/mL
Plasma concentration Individual (I-2 PO 30 mg/kg, 2 hr, 30 mg/kg): 2640 ng/mL and 2190 ng/mL
Plasma concentration Individual (I-2 PO 30 mg/kg, 4 hr, 30 mg/kg): 1600 ng/mL
Plasma concentration Individual (I-2 PO 30 mg/kg, 8 hr, 30 mg/kg): 233 ng/mL and 261 ng/mL
Plasma concentration Individual (I-2 PO 30 mg/kg, 24 hr, 30 mg/kg): 7.09 ng/mL and 5.63 ng/mL
Plasma concentration Individual (I-2 PO 100 mg/kg, 0.083 hr, 100 mg/kg): 406 ng/mL and 159 ng/mL and 182 ng/mL
Plasma concentration Individual (I-2 PO 100 mg/kg, 0.25 hr, 100 mg/kg): 1310 ng/mL and 2360 ng/mL and 885 ng/mL
Plasma concentration Individual (I-2 PO 100 mg/kg, 0.5 hr, 100 mg/kg): 3290 ng/mL and 2960 ng/mL
Plasma concentration Individual (I-2 PO 100 mg/kg, 1 hr, 100 mg/kg): 3010 ng/mL and 3120 ng/mL
Plasma concentration Individual (I-2 PO 100 mg/kg, 2 hr, 100 mg/kg): 4510 ng/mL and 3430 ng/mL
Plasma concentration Individual (I-2 PO 100 mg/kg, 4 hr, 100 mg/kg): 3380 ng/mL and 1660 ng/mL and 2310 ng/mL
Plasma concentration Individual (I-2 PO 100 mg/kg, 8 hr, 100 mg/kg): 914 ng/mL and 861 ng/mL
Plasma concentration Individual (I-2 PO 100 mg/kg, 24 hr, 100 mg/kg): 19.7 ng/mL and 18.8 ng/mL and 37.7 ng/mL
concentration at 0.5 hr (female, BALB/c, mouse, plasma, po, 30 mg/kg, I-2 PO 30 mg/kg, 0.5 hr, read-out: Plasma concentration Individual): 1160 ng/mL
concentration at 0.5 hr (female, BALB/c, mouse, plasma, po, 30 mg/kg, I-2 PO 30 mg/kg, 0.5 hr, read-out: Plasma concentration Mean): 1240 ng/mL
concentration at 1 hr (female, BALB/c, mouse, plasma, po, 30 mg/kg, I-2 PO 30 mg/kg, 1 hr, read-out: Plasma concentration Individual): 1700 ng/mL
concentration at 1 hr (female, BALB/c, mouse, plasma, po, 30 mg/kg, I-2 PO 30 mg/kg, 1 hr, read-out: Plasma concentration Mean): 1800 ng/mL
concentration at 2 hr (female, BALB/c, mouse, plasma, po, 30 mg/kg, I-2 PO 30 mg/kg, 2 hr, read-out: Plasma concentration Individual): 2150 ng/mL
concentration at 2 hr (female, BALB/c, mouse, plasma, po, 30 mg/kg, I-2 PO 30 mg/kg, 2 hr, read-out: Plasma concentration Mean): 2330 ng/mL
concentration at 4 hr (female, BALB/c, mouse, plasma, po, 30 mg/kg, I-2 PO 30 mg/kg, 4 hr, read-out: Plasma concentration Individual): 1340 ng/mL
concentration at 4 hr (female, BALB/c, mouse, plasma, po, 30 mg/kg, I-2 PO 30 mg/kg, 4 hr, read-out: Plasma concentration Mean): 1510 ng/mL
concentration at 0.083 h (female, Balb/c, mouse, plasma, po, 30 mg/kg, I-2 PO 30 mg/kg, 0.083 hr, read-out: Plasma concentration Mean): 137 ng/mL
concentration at 0.25 h (female, Balb/c, mouse, plasma, po, 30 mg/kg, I-2 PO 30 mg/kg, 0.25 hr, read-out: Plasma concentration Individual): 472 ng/mL
concentration at 0.25 h (female, Balb/c, mouse, plasma, po, 30 mg/kg, I-2 PO 30 mg/kg, 0.25 hr, read-out: Plasma concentration Mean): 586 ng/mL
concentration at 8 hr (female, Balb/c, mouse, plasma, po, 30 mg/kg, I-2 PO 30 mg/kg, 8 hr, read-out: Plasma concentration Individual): 244 ng/mL
concentration at 8 h (female, Balb/c, mouse, plasma, po, 30 mg/kg, I-2 PO 30 mg/kg, 8 hr, read-out: Plasma concentration Mean): 246 ng/mL
concentration at 24 h (female, Balb/c, mouse, plasma, po, 30 mg/kg, I-2 PO 30 mg/kg, 24 hr, read-out: Plasma concentration Individual): 4.28 ng/mL
concentration at 24 h (female, Balb/c, mouse, plasma, po, 30 mg/kg, I-2 PO 30 mg/kg, 24 hr, read-out: Plasma concentration Mean): 5.67 ng/mL
concentration at 0.083 h (female, Balb/c, mouse, plasma, po, 100 mg/kg, I-2 PO 100 mg/kg, 0.083 hr, read-out: Plasma concentration Mean): 249 ng/mL
concentration at 0.25 h (female, Balb/c, mouse, plasma, po, 100 mg/kg, I-2 PO 100 mg/kg, 0.25 hr, read-out: Plasma concentration Mean): 1520 ng/mL
concentration at 0.5 h (female, Balb/c, mouse, plasma, po, 100 mg/kg, I-2 PO 100 mg/kg, 0.5 hr, read-out: Plasma concentration Individual): 2800 ng/mL
concentration at 0.5 h (female, Balb/c, mouse, plasma, po, 100 mg/kg, I-2 PO 100 mg/kg, 0.5 hr, read-out: Plasma concentration Mean): 3020 ng/mL
concentration at 1 h (female, Balb/c, mouse, plasma, po, 100 mg/kg, I-2 PO 100 mg/kg, 1 hr, read-out: Plasma concentration Individual): 4550 ng/mL
concentration at 1 h (female, Balb/c, mouse, plasma, po, 100 mg/kg, I-2 PO 100 mg/kg, 1 hr, read-out: Plasma concentration Mean): 3560 ng/mL
concentration at 2 h (female, Balb/c, mouse, plasma, po, 100 mg/kg, I-2 PO 100 mg/kg, 2 hr, read-out: Plasma concentration Individual): 3810 ng/mL
concentration at 2 h (female, Balb/c, mouse, plasma, po, 100 mg/kg, I-2 PO 100 mg/kg, 2 hr, read-out: Plasma concentration Mean): 3920 ng/mL
concentration at 4 h (female, Balb/c, mouse, plasma, po, 100 mg/kg, I-2 PO 100 mg/kg, 4 hr, read-out: Plasma concentration Mean): 2450 ng/mL
concentration at 8 h (female, Balb/c, mouse, plasma, po, 100 mg/kg, I-2 PO 100 mg/kg, 8 hr, read-out: Plasma concentration Individual): 1080 ng/mL
concentration at 8 h (female, Balb/c, mouse, plasma, po, 100 mg/kg, I-2 PO 100 mg/kg, 8 hr, read-out: Plasma concentration Mean): 952 ng/mL
concentration at 24 h (female, Balb/c, mouse, plasma, po, 100 mg/kg, I-2 PO 100 mg/kg, 24 hr, read-out: Plasma concentration Mean): 25.4 ng/mL
AUC(0-inf) (mouse, plasma, I-2 PO 30 mg/kg): 12500 ng·h/mL
AUC(0-t) (mouse, plasma, I-2 PO 30 mg/kg): 12500 ng·h/mL
Cmax (mouse, plasma, I-2 PO 30 mg/kg): 2330 ng/mL
MRT inf (mouse, plasma, I-2 PO 30 mg/kg): 3.85 h
MRT last (mouse, plasma, I-2 PO 30 mg/kg): 3.81 h
Tmax (mouse, plasma, I-2 PO 30 mg/kg): 2 h
half-life (mouse, plasma, I-2 PO 30 mg/kg): 2.6 h
AUC(0-inf) [2]: 27200 ng·h/mL
AUC(0-t) [2]: 27100 ng·h/mL
Cmax [2]: 3920 ng/mL
MRT inf [2]: 4.73 h
MRT last [2]: 4.63 h
Tmax [2]: 2 h
half-life [2]: 3.04 h

Source: patent publication US20240208961A1, “EIF4E INHIBITORS AND USES THEREOF” (PIC Therapeutics, Inc., priority 2022, published 2024)
